What was measured:
[1] = U.S. Pat. No. 4,868,170; cited from earlier work
[2] = Saturation concentrations of drugs in buffered solvent, HPLC of supernatant (Example 4); assay type: physicochemical; details: McIlvaine buffer pH 6.0; compound pre-dissolved in propylene glycol
Protocol: 250 μl “McIlvaine 0.1%” were mixed with 50 μl dexpanthenol stock solution, brought to 900 μl with distilled water, and combined and vigorously mixed with 100 μl experimental compound pre-dissolved resp. pre-suspended in propylene glycol. Alternative solutions with compound pre-dilutions/pre-suspensions in DMSO were prepared. Samples were centrifuged for 10 min at 15800 rcf. Aliquots of the clear supernatants were transferred into autosampler glass vials and the content of the dissolved experimental compounds was analyzed by HPLC using isocratic elution with 70% or 80% acetonitrile 0.01% TFA/[…] or 30% water 0.01% TFA at 1 ml/min and 50° C. for 10 min on an Agilent Zorbax Eclipse Plus C18 column (3.5 μm, 4.6×150 mm) and UV absorbance detection at the wavelengths appropriate for the respective experimental compound.

[3] = Solubility of fluticasone propionate in 0.25x McIlvaine buffer (Examples 10, 11); assay type: physicochemical
Protocol: 0% Propylene glycol • B . . . 5% Propylene glycol • C . . . 10% Propylene glycol • * . . . w/v % Escin • # . . . v/v % Dexpanthenol • y-axis . . . concentration of dissolved fluticasone propionate
FIG. 7 represents the impact of dexpanthenol and saponin concentration on the dissolution of fluticasone propionate in 0.25× McIlvaine buffer containing 5% propylene glycol (maximum concentration achieved=5 μg/ml). […] The presence of 5% dexpanthenol seems to deliver solubility boosting effects. • A . . . 0% Dexpanthenol • B . . . 5% Dexpanthenol • y-axis . . . concentration of dissolved fluticasone propionate • x-axis . . . % Glycyrrhizin

[4] = Fluticasone propionate solubility in the presence of hyaluronic acid (Examples 3, 14); assay type: physicochemical; details: 5% propylene glycol, 7.5 g/l hyaluronic acid; one month storage at ambient temperature
Protocol: Samples of series A (0% dexpanthenol): 2.5 ml solution containing the respective escin concentration (McIlvaine 0.01%, 0.02%, 0.03% or McIlvaine buffer) were mixed with 3.6 ml hyaluronic acid stock solution and 0.5 ml Fluticasone propionate pre-solution and filled up to 10 ml with distilled water. Samples of series B (2% dexpanthenol): 2.5 ml solution containing the respective escin concentration (McIlvaine 0.01%, 0.02%, 0.03% or McIlvaine buffer) were mixed with 0.2 ml dexpanthenol, 3.6 ml Hyaluronic acid stock solution and 0.5 ml fluticasone propionate pre-solution and filled up to 10 ml with distilled water. […]
After 1 month storage at room temperature, samples were taken and centrifuged for 11 min at 15700 rcf. The clear supernatant was filled into glass vials and the concentration of dissolved FP (maximal 5 μg/ml) was measured in duplicates by HPLC.
Fluticasone propionate in the presence of hyaluronic acid was analyzed by RP-HPLC (UV absorbance detection at 235 nm) using a gradient from 5% acetonitrile to 90% acetonitrile in water containing 0.01% TFA (see detailed gradient description below).
Solvent A: water HPLC gradient grade 0.01% trifluoroacetic acid. […] From the fluticasone propionate containing samples 40 μl each were injected and analyzed. […]

porcine nasal mucosa = assay: Ex vivo penetration of fluticasone propionate into porcine nasal mucosa; assay type: in vitro ADME; details: 5 μg/ml; 0.03% escin, 3% propylene glycol, 5% dexpanthenol vs suspension without saponin; 15-60 min
Protocol: In order to test for the bioavailability of compositions prepared in accordance with the present invention, experiments were conducted ex vivo wherein an experimental composition comprising fluticasone propionate as a compound of interest was compared to a composition comprising the same compound at the same concentration but without a saponin as a solubilization enhancer.
FIG. 14 represents the concentrations of fluticasone propionate penetrated ex-vivo into porcine nasal mucosa at different time points. The experimental composition comprised 5 μg/ml fluticasone propionate dissolved in aqueous buffer comprising 0.03% escin, 3% propylene glycol and 5% dexpanthenol. The comparative specimen was a suspension comprising the same aqueous buffer and no saponin nor dexpanthenol. Both formulations were added ex-vivo onto surgically extracted porcine nasal mucosa. After 15, 30, 45 and 60 minutes of incubation the mucosa was washed and the amount of permeated fluticasone propionate was determined by HPLC-MS/MS. • A—experimental composition; • B—comparative fluticasone propionate suspension; • x-axis=incubation time in minutes; • y-axis=ng fluticasone propionate/g tissue.

Saturation concentration in 10% propylene glycol or DMSO without escin or dexpanthenol [2] | Saturation concentration in 10% propylene glycol or DMSO, 0.1% escin and 5% dexpanthenol [2] | best achieved concentration without saponin relative to maximum concentration with at least 0.03% escin ([3]; 0.25x McIlvaine buffer pH 6, propylene glycol 0-10%, dexpanthenol 0-5%) | maximum concentration achieved ([3]; 0.25x McIlvaine buffer, 5% propylene glycol, glycyrrhizin, dexpanthenol 0% or 5%) | concentration of drug permeated into mucosal tissue, experimental composition versus comparative suspension (porcine nasal mucosa) | Structure (SMILES) | aqueous solubility [1] | effect of dexpanthenol on fluticasone propionate solubility in the presence of escin [4]
– | – | – | – | – | CCS[C@]1(SC)CC[C@H]2[C@@H]3CCC4=CC(=O)C=C[C@]4(C)[C@@]3(F)[C@@H](O)C[C@@]21C [tipredane] | less than 0.2 mg/l | –
0.68 µg/mL | 5 µg/mL | about 50% | 5 µg/mL | around five times higher | CCC(=O)O[C@]1(C(=O)SCF)[C@H](C)C[C@H]2[C@@H]3C[C@H](F)C4=CC(=O)C=C[C@]4(C)[C@@]3(F)[C@@H](O)C[C@@]21C [Fluticasone propionate] | – | synergistically boost the solubility enhancing activity of escin
